Results as given in patent US9062045B2, “Triazolopyridine compounds” (Novartis AG, priority 2012, dated 2015).
Structures can show the parent of a compound that is named as a salt. Where two headings read alike, the source gives them in different places.

Legend:
human platelet PDE3 = human platelet PDE3 (Homo sapiens (Human), UniProt Q14432); test: hPDE3 assay ([3H]cAMP scintillation proximity assay); type: biochemical; settings: human platelet PDE3
From the text: Here, compounds of formula I were screened for their ability to inhibit human PDE3 in the assay based on Amersham Pharmacia Biotech's Phosphodiesterase (PDE) [^3H]-adenosine 3′,5′ cyclic phosphate ([^3H]cAMP) Scintillation Proximity Assay (SPA). The assay is based on the hydrolysis of [^3H]cAMP, by human platelet PDE3, to [^3H]5′-adenoside monophosphate (5′-AMP). The [^3H]5′-AMP is specifically captured by yttrium silicate SPA beads in the presence of zinc sulphate.
• Optiplate and TopSeal-S (Can berra Packard) • Human platelet PDE3 (partially purified from human platelets)—a titration curve of human platelet PDE3 activity was performed to optimise the concentration of hPDE3 required in the assay. • Yttrium silicate SPA beads and [^3H]cAMP (Amersham) • Tris-Base, magnesium chloride, ethylenediaminetetraacetic acid (di-sodium salt), bovine serum albumin BSA and cAMP (Sigma) Solutions and Buffers: • Assay buffer: 7.56 g Tris-Base was dissolved in approximately 800 mL distilled water and the pH adjusted to 7.5 with 1 M hydrochloric acid. 10.3 mL 1 M magnesium chloride and 4.25 mL 0.5 M EDTA were added. The solution was made to 1 L with distilled water and stored at 4° C. On day of use 18 mL of the above solution was removed and 2 mL 5 mg/ml BSA were added thereto. • Enzyme buffer: 10 mM Tris-HCl at pH 7.5, 1 mM EDTA • Yttrium silicate SPA beads: 1 vial was reconstituted in 28 mL distilled water and stored at 4° C. Assay
The assay was performed in a final volume of 100 μL per well of an Optiplate (Canberra Packard). A 10 μL aliquot of the test compound dissolved in DMSO/distilled water was placed in a well of an Optiplate plate, followed by the addition of 80 μL ‘Assay mix’ (5.5 μL [^3H]cAMP and 88 μL “cold” cAMP were diluted to 8.8 mL using assay buffer). The reaction was started by adding 10 μL hPDE3 (50 μL stock hPDE3 solution was diluted 50 fold to 2.5 mL using enzyme buffer). The plate was incubated at room temperature for 30 min, the reaction was then terminated by the addition of 50 μL Yttrium silicate SPA beads (pre-warmed to room temperature) to all wells. […] The plate was sealed using TopSeal-S according to the manufacturer's instructions and counted using a Packard TopCount, each well being counted for 1 min. IC50 values were determined using non-linear regression.

GTL16 cells = test: GTL16 cell viability assay (CellTiter Glo); settings: read-out: GTL-16 Proliferation IC50
Method: GTL16 Cell Viability Assay:
GTL16 expresses high level of c-Met receptor tyrosine kinase due to the gene amplification.
GTL16 cells were seeded in DMEM medium with 10% FBS and 1% Pene. & Strep. at 5000 cells/well/90 μL in 96 well plate and incubated overnight for attachment at 37° C. in 5% CO2 incubator. 10-fold serials dilutions of compounds were added to the cell as 10 μL/well. The final assay volume was 100 μl/well. The assay plates were incubated at 37° C. in 5% CO2 incubator for 24 hours. […] The chemiluminescent light unit was read in Envision from Perkin Elmer. All the tests were run at triplicates. The IC50 was calculated using Spotfire software.

[1] = molecular target: c-Met receptor tyrosine kinase, GST-c-MET (969-1390) (Homo sapiens (Human), UniProt P08581); settings: read-out: c-Met Biochem IC50
c-Met receptor tyrosine kinase, GST-c-MET (969-1390), sequence (P08581 969-1390): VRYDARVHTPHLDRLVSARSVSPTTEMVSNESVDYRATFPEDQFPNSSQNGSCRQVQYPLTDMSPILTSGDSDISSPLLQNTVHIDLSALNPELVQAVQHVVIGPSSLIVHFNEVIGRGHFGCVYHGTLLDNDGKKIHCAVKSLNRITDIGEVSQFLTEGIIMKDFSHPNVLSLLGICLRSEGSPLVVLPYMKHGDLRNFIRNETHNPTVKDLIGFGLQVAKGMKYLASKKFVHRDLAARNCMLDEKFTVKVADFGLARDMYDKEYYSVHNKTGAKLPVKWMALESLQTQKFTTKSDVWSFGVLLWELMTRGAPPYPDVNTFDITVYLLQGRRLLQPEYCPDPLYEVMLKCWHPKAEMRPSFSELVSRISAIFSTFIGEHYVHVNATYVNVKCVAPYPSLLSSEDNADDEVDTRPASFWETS
Method: A number of compounds of the present invention were assayed in an antibody based kinase phosphorylation assay as follows.
The EPK kinase assay for c-Met receptor tyrosine kinase was developed, using the purified recombinant GST-fusion protein, containing the cytoplasmic domain of the enzyme.
The kinase assay is based on the LanthaScreen™ technology.
The kinase reactions were performed in 384 well microtiter plates in a total reaction volume of 10.05 μL. The assay plates were prepared with 0.05 μL per well of test compound in the appropriate test concentration, as described under “preparation of compound dilutions”. The reactions were started by combining 5 μL of ATP solution with 5 μL of enzyme-substrate mix (consisting of kinase and substrate). […] Subsequently 5 μL of detection mix (50 mM Tris/HCl, 2 mM DTT, 0.05% Tween20, 20 μM sodium orthovanadate, 1% BSA, 1 nM Tb-PY20 antibody) were added to the stopped reactions. After 45 minutes incubation in dark at room temperature, the plates were measured in a Perkinelmer Envision fluorescence reader.

[2] = hPDE3 assay ([3H]cAMP scintillation proximity assay); type: biochemical, human; settings: Table 3-C; title says PDE3, head says c-Met Biochem IC50 [nM]
[3] = patients treated with SGX523; cited from earlier work
[4] = monkey liver S-9; cited from earlier work
[5] = human liver S-9; cited from earlier work
[6] = dog S-9 incubations; cited from earlier work
[7] = 2 μM ATP, 60 minutes at room temperature

human platelet PDE3, sequence (Q14432 whole entry): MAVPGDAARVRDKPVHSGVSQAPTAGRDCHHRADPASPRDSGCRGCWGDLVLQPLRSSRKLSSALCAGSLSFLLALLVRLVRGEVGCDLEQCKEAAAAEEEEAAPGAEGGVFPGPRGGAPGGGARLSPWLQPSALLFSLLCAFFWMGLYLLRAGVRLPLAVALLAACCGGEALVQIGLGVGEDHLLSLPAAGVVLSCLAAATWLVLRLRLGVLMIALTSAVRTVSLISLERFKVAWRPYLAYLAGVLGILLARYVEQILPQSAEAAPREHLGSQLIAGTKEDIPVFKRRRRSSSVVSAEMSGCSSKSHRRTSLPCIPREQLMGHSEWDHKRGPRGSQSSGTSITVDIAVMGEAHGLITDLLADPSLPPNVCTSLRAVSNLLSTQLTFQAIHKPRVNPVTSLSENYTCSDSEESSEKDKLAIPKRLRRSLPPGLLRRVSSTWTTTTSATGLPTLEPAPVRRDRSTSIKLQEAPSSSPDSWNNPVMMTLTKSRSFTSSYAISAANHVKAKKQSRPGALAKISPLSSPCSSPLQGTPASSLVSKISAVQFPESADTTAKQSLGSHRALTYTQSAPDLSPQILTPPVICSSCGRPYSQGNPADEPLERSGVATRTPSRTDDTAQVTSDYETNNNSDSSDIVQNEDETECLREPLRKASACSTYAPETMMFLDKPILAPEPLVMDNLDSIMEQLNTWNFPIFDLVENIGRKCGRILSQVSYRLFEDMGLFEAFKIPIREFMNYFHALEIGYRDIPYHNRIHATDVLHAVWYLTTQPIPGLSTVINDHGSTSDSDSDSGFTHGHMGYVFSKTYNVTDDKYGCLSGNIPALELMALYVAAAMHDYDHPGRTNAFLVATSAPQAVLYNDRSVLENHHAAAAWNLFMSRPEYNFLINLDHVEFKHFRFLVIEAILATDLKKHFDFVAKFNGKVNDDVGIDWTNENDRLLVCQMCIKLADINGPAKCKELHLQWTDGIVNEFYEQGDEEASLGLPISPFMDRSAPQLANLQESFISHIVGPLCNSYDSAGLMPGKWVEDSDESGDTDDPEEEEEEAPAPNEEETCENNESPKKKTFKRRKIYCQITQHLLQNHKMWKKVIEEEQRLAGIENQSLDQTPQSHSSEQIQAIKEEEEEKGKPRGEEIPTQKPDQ

IC50 (human platelet PDE3) | IC50 [1, 7] | SMILES | IC50 (GTL16 cells; GTL16 cells, 24 hours) | other results
29000 nM | 4 nM | C[C@@H]1CN(c2cnc3ccc(Sc4nnc5ccc(-c6cnn(C)c6)cn45)cc3c2)C[C@H](C)N1 [Example 42, 3-((3S,5R)-3,5-Dimethylpiperazin-1-yl)-6-(6-(1-methyl-1H-pyrazol-4-yl)-[1,2,4]triazolo[4,3-a]pyridin-3-ylthio)quinoline] | 0.6 nM | 
> 30000 nM | 83 nM | C/C(=N\O)c1ccc2nnc(Sc3ccc4ncc(CN5CCOCC5)cc4c3)n2c1 [Example 79, (E)-1-(3-(3-(Morpholin-4-yl-methyl)quinolin-6-ylthio)-[1,2,4]triazolo[4,3-a]pyridin-6-yl)ethanone oxime] | 1140 nM | 
30000 nM | […] | C[C@H]1CNCCN1c1cnc2ccc(Sc3nnc4c(F)cc(-c5cnn(C)c5)cn34)cc2c1 [Example 46, (S)-6-(8-Fluoro-6-(1-methyl-1H-pyrazol-4-yl)-[1,2,4]triazolo[4,3-a]pyridin-3-ylthio)-3-(2-methylpiperazin-1-yl)quinoline] |  | 
 |  | C/C(=N\OCCO)c1ccc2nnc(Cc3ccc4ncc(N5CCN(C)CC5)cc4c3)n2n1 [Comparator No. 2, 1-{3-[3-(4-Methyl-piperazin-1-yl)-quinolin-6-ylmethyl]-[1,2,4]triazolo[4,3-b]pyridazin-6-yl}-ethanone O-(2-hydroxy-ethyl)-oxime] |  | IC50 [2]: 4 nM
 |  | Cn1cc(-c2ccc3nnc(Sc4ccc5ncccc5c4)n3c2)cn1 [Reference Example No. 63, 6-(6-(1-methyl-1H-pyrazol-4-yl)-[1,2,4]triazolo[4,3-a]pyridin-3-ylthio)quinoline] |  | IC50 [2]: 15 nM
16000 nM | 5 nM | C[C@H]1CN(c2cnc3ccc(Sc4nnc5ccc(-c6cnn(C)c6)cn45)cc3c2)CCO1 [Example 35A, (S)-2-Methyl-4-(6-(6-(1-methyl-1H-pyrazol-4-yl)-[1,2,4]triazolo[4,3-a]pyridin-3-ylthio)quinolin-3-yl)morpholine] | 1 nM | 
15000 nM | 19 nM | Cn1cc(-c2ccc3nnc(Sc4ccc5ncc(NC6CCN(C(=O)OC(C)(C)C)CC6)cc5c4)n3c2)cn1 [Example 22, tert-Butyl 4-(6-(6-(1-methyl-1H-pyrazol-4-yl)-[1,2,4]triazolo[4,3-a]pyridin-3-ylthio)quinolin-3-ylamino)piperidine-1-carboxylate] | 2 nM | 
 | 4 nM | CC1CN(c2cnc3ccc(Sc4nnc5ccc(-c6cnn(C)c6)cn45)cc3c2)CCO1 (stereo not drawn) [Example 35, 2-Methyl-4-(6-(6-(1-methyl-1H-pyrazol-4-yl)-[1,2,4]triazolo[4,3-a]pyridin-3-ylthio)quinolin-3-yl)morpholine] | 0.4 nM | 
25000 nM | […] | Cn1cc(-c2ccc3nnc(Sc4ccc5ncc(N6CCC(N7CCCCC7)CC6)cc5c4)n3c2)cn1 [Example 30, 3-(1,4′-Bipiperidin-1′-yl)-6-(6-(1-methyl-1H-pyrazol-4-yl)-[1,2,4]triazolo[4,3-a]pyridin-3-ylthio)quinoline] | […] | 
 |  | Cn1cc(-c2ccc3nnc(Sc4ccc5ncccc5c4)n3n2)cn1 [Comparator No. 4 (SGX523), 6-[6-(1-Methyl-1H-pyrazol-4-yl)-[1,2,4]triazolo[4,3-b]pyridazin-3-ylsulfanyl]-quinoline] |  | renal function of patients [3]: compromised renal function; generation of metabolite M11 [4]: generated; generation of metabolite M11 [5]: generated; generation of metabolite M11 [6]: absent
 | 3 nM | Cn1cc(-c2ccc3nnc(C(F)(F)c4ccc5ncccc5c4)n3n2)cn1 [Comparator No. 1 (JNJ-38877605), 6-{Difluoro-[6-(1-methyl-1H-pyrazol-4-yl)-[1,2,4]triazolo[4,3-b]pyridazin-3-yl]-methyl}-quinoline, reference compound] | < 10 nM | IC50 [2]: 4 nM
 |  | Cn1cc(-c2cnc3ccc(Sc4nnc5ccc(-c6cnn(CCO)c6)cn45)cc3c2)cn1 [Reference Example No. 73, 2-(4-(3-(3-(1-methyl-1H-pyrazol-4-yl)quinolin-6-ylthio)-[1,2,4]triazolo[4,3-a]pyridin-6-yl)-1H-pyrazol-1-yl)ethanol, reference compound] |  | IC50 [2]: 7 nM; IC50 [1]: 5 nM
 | 4 nM | C[C@@H]1CN(c2cnc3ccc(Sc4nnc5ccc(-c6cnn(C)c6)cn45)cc3c2)CCO1 [Example 35B, (R)-2-Methyl-4-(6-(6-(1-methyl-1H-pyrazol-4-yl)-[1,2,4]triazolo[4,3-a]pyridin-3-ylthio)quinolin-3-yl)morpholine] | 4 nM | 
30000 nM | 45 nM | Cn1cc(-c2ccc3nnc(Sc4ccc5ncc(N6CCN(c7ccccc7)CC6)cc5c4)n3c2)cn1 [Example 34, 6-(6-(1-Methyl-1H-pyrazol-4-yl)-[1,2,4]triazolo[4,3-a]pyridin-3-ylthio)-3-(4-phenylpiperazin-1-yl)quinoline] | 1 nM | 
17000 nM |  | Cn1cc(-c2ccc3nnc(Sc4ccc5ncc(N6CCNCC6)cc5c4)n3c2)cn1 [Example 27, 6-(6-(1-Methyl-1H-pyrazol-4-yl)-[1,2,4]triazolo[4,3-a]pyridin-3-ylthio)-3-(piperazin-1-yl)quinoline] | 4 nM | 
13000 nM | […] | Fc1cc(-c2cn[nH]c2)cn2c(Sc3ccc4ncc(N5CCOCC5)cc4c3)nnc12 [Example 58, 4-(6-(8-Fluoro-6-(1H-pyrazol-4-yl)-[1,2,4]triazolo[4,3-a]pyridin-3-ylthio)quinolin-3-yl)morpholine] | 8 nM | 
26000 nM | […] | Cn1cc(-c2ccc3nnc(Sc4ccc5ncc(N6CCN(C7CCCCC7)CC6)cc5c4)n3c2)cn1 [Example 32, 3-(4-Cyclohexylpiperazin-1-yl)-6-(6-(1-methyl-1H-pyrazol-4-yl)-[1,2,4]triazolo[4,3-a]pyridin-3-ylthio)quinoline] | 4 nM | 
27000 nM |  | C/C(=N\OCCO)c1ccc2nnc(Sc3ccc4ncc(N5CCN(C)CC5)cc4c3)n2c1 [Example 86, (E)-1-(3-(3-(4-methylpiperazin-1-yl)quinolin-6-ylthio)-[1,2,4]triazolo[4,3-a]pyridin-6-yl)ethanone O-2-hydroxyethyl oxime] | 51 nM | 
30000 nM | 3 nM | Cn1cc(-c2cc(F)c3nnc(Sc4ccc5ncc(N6CCC(N7CCCCC7)CC6)cc5c4)n3c2)cn1 [Example 31, 3-(1,4′-Bipiperidin-1′-yl)-6-(8-fluoro-6-(1-methyl-1H-pyrazol-4-yl)-[1,2,4]triazolo[4,3-a]pyridin-3-ylthio)quinoline] | 0.4 nM | 

SMILES | IC50 (human platelet PDE3) | IC50 [1, 7] | IC50 (GTL16 cells; GTL16 cells, 24 hours) | other results
Cn1cc(-c2ccc3nnc(Sc4ccc5ncc(N)cc5c4)n3c2)cn1 [Example 56, 6-(6-(1-Methyl-1H-pyrazol-4-yl)-[1,2,4]triazolo[4,3-a]pyridin-3-ylthio)quinolin-3-amine hydrochloride] | 17000 nM |  |  | IC50 (GTL16 cells): 33 nM; IC50 [1]: 13 nM
c1cc2ncc(N3CCOCC3)cc2cc1Sc1nnc2ccc(-c3cn[nH]c3)cn12 [Example 57, 4-(6-(6-(1H-pyrazol-4-yl)-[1,2,4]triazolo[4,3-a]pyridin-3-ylthio)quinolin-3-yl)morpholine] | 10000 nM |  | 10 nM | IC50 [1]: […]
Cn1cc(-c2cc(F)c3nnc(Sc4ccc5ncc(N)cc5c4)n3c2)cn1 [Example 55, 6-(8-Fluoro-6-(1-methyl-1H-pyrazol-4-yl)-[1,2,4]triazolo[4,3-a]pyridin-3-ylthio)quinolin-3-amine hydrochloride] | > 30000 nM |  |  | IC50 (GTL16 cells): 1 nM; IC50 [1]: […]
